These results are taken from patent publication US11352352B2, “Aminopyrimidine compound, preparation method therefor and use thereof” (BEIJING ADAMADLE BIOTECHNOLOGY LIMITED LIABILITY COMPANY, priority 2017, dated 2022).

Test in all cases: Cell proliferation inhibition experiment, CellTiter-Glo (CTG) method
Common to all, as to assay type: cell-based
On the technique in general: In ATP-based viability assays light output follows the ATP content of the culture.

One assay relates to NCI-H1975. The conditions noted are these: for IC50: Homo sapiens, NCI-H1975, 72 h, NCI-H1975 cells, CTG, 3 days; for A-431/NCI-H1975 Selectivity: ratio of A-431 IC50 to NCI-H1975 IC50. The procedure: (§1) Cell Proliferation Inhibition Experiment
(§2) Compounds were tested in the selected cell lines, and solvent is set as control, nine concentrations were detected with three parallel wells for each concentration.
(§3) 2. Reagents and Materials • 1) fetal bovine serum FBS (GIBCO, Cat #10099-141) • 2) CellTiter-Glo® Luminescent Cell Viability Assay (Promega, Cat #G7572) • 3) 96-well plate with flat clear bottom, black wall plates (Corning®, Cat #3340)
(§4) The first day: Incubation and plant of cells • 1) Cells in logarithmic growth phase were harvested and counted by cell counter. Cell viability was detected by trypan blue exclusion assay to ensure that the viability of each cell line was above 90%. • 2) Cell concentration was adjusted by diluting complete culture medium, and 90 μL cell suspension was added to a 96-well plate (T0 plate and drug plate to be tested) to make the cell density reach the specified concentration. • 3) Cells in 96-well plate were incubated overnight at condition of 37° C., 5% CO2 and 95% humidity.
(§5) The second day: Reading T0 plate • 1) 10 μL culture medium was added to T0 plate. • 2) CTG reagent was melt, while the cell plate was balanced to room temperature for 30 minutes. • 3) The same volume of CTG solution was added to each well. • 4) The cell plate was vibrated for 2 minutes on an orbital shaker to lyze the cells. • 5) The cell plate was placed at room temperature for 10 minutes to stabilize the cold light signal. • 6) The cold light value was read with EnVision.
(§6) Drug Addition • 1) Drug dilution. The compounds to be tested were dissolved and packaged, then a gradient elution was performed to obtain a solution diluted 10 times. • 2) Drug addition. […] drug solution was added into each well of the 96-well plate, which was inoculated cells, three parallel wells were set for each cell concentration.
(§7) The third day: reading plate at the terminal • 1) CTG reagent was melt, while the cell plate was balanced to room temperature for 30 minutes. • 2) The same volume of CTG solution was added to each well. • 3) The cell plate was vibrated for 2 minutes on an orbital shaker to lyze the cells. • 4) The cell plate was placed at room temperature for 10 minutes to stabilize the cold light signal. • 5) The cold light value was read with EnVision
(§8) Data were analyzed using GraphPad Prism 5.0 software, and non-linear S curve regression was used for fitting the data to give a dose-effect curve, IC50 value was calculated accordingly. Cell Survival Rate (%)=(Lumdrugs−Lumcontrol)/(Lumcell−Lumcontrol)×100%.

The next assay deals with PC-9. The conditions noted are these: Homo sapiens, PC-9, 72 h, PC-9 cells, 3 days. The procedure: as §1, §2, §3, §4, §5, §6, §7, §8
A further assay relates to A-431. The conditions noted are these: Homo sapiens, A-431, 72 h, A-431 cells, 3 days. The method, then: as §1, §2, §3, §4, §5
Drug Addition • 1) Drug dilution. The compounds to be tested were dissolved and packaged, then a gradient elution was performed to obtain a solution diluted 10 times. • 2) Drug addition. […] drug solution was added into each well of the 96-well plate, which was inoculated cells, three parallel wells were set for each cell concentration. The highest concentration of the compounds to be tested on A-431 was 30 μM, nine concentrations was set with 3 times dilution; while the highest concentration on NCI-H1975 and PC-9 was 1.111 μM, 9 concentrations was set with 3 times dilution. • 3) Culture. Cells in 96-well plates in which drugs have been added were cultured at condition of 37° C., 5% CO2 and 95% humidity for 3 days, and then CTG assay was performed respectively.
as §7, §8

With `C=CC(=O)Nc1cc(Nc2cc(-c3ccc4cnn(C)c4c3)ncn2)c(OC)cc1N1C[C@@H](C)N[C@@H](C)C1` [compound 276], the values for the IC50 in the assay with NCI-H1975, with PC-9 and with A-431 were 0.0324 µM, 0.013 µM and 2.11 µM, respectively. Besides, the “A-431/NCI-H1975 Selectivity” value in the assay on NCI-H1975 was found to be 65.1.
For `C=CC(=O)Nc1cc(Nc2cc(-c3ccc4cnn(C)c4c3)ncn2)c(OC(F)F)cc1N1CCC(N2CCOCC2)CC1` [compound 161], in that order: 0.0174 µM, 0.0199 µM, 1.03 µM and 59.3.
On the same counts, the results for `C=CC(=O)Nc1cc(Nc2cc(-c3ccc4cnn(C)c4c3)ncn2)c(OC)cc1N(C)C1CCN(CCOC)CC1` [compound 225] are 0.0751 µM, 0.0672 µM, 2.47 µM and 32.9.
Regarding `C=CC(=O)Nc1cc(Nc2cc(-c3ccc4cnn(C)c4c3)ncn2)c(OC)cc1N1CCN(CCOC)CC1` [compound 159], the IC50 came to 0.0319 µM in the assay with NCI-H1975, 0.0279 µM in the assay with PC-9 and 1.53 µM in the assay with A-431.
On to `C=CC(=O)Nc1cccc(Nc2nc(Nc3ccc4c(cnn4C)c3)ncc2F)c1` [known compound 296, reference compound], for which the results for the IC50 in the assay on NCI-H1975, in the assay with PC-9 and in the assay on A-431 were 0.0907 µM, 0.121 µM and 1.44 µM, respectively. Moreover, in the assay with NCI-H1975, the “A-431/NCI-H1975 Selectivity” value is 15.9.
With `C=CC(=O)Nc1cc(Nc2cc(-c3ccc4c(cnn4C)c3)ncn2)c(OC)cc1N1CCC(N2CCC(OC)C2)CC1` (stereo not shown) [compound 202], the values for the IC50 in the assay on NCI-H1975, with PC-9 and in the assay on A-431 were 0.0107 µM, 0.0127 µM and 0.798 µM, respectively. In the assay on NCI-H1975, the “A-431/NCI-H1975 Selectivity” value is 74.6.
Consider `C=CC(=O)Nc1cc(Nc2cc(-c3ccc4c(cnn4C)c3)ncn2)c(OC)cc1OCCN1CCCCC1` [compound 189], for which the results for the IC50 with NCI-H1975, in the assay with PC-9 and in the assay on A-431 were 0.109 µM, 0.0241 µM and 2.64 µM, respectively. The “A-431/NCI-H1975 Selectivity” value in the assay with NCI-H1975 stood at 24.3.
Regarding `C=CC(=O)Nc1cc(Nc2cc(-c3ccc4c(cnn4C)c3)ncn2)c(OC)cc1N(C)[C@@H]1CCN(C)C1` [compound 110], the results for the 50% inhibitory concentration (IC50) with NCI-H1975, in the assay on PC-9 and with A-431 were 0.008 µM, 0.0069 µM and 0.599 µM, respectively.
`C=CC(=O)Nc1cc(Nc2cc(-c3ccc4c(cnn4C)c3)ncn2)c(OC)cc1N1CCN(C2COC2)CC1` [compound 218]: the IC50 in the assay on NCI-H1975 turned out to be 0.0212 µM; with PC-9 it was 0.0092 µM; in the assay with A-431, 1.83 µM. Besides, in the assay on NCI-H1975, the “A-431/NCI-H1975 Selectivity” value is recorded as 86.6.
With `C=CC(=O)Nc1cc(Nc2cc(-c3ccc4c(cnn4C)c3)ncn2)c(OC(F)(F)F)cc1N(C)CCN(C)C` [compound 151], the IC50 in the assay on NCI-H1975 was found to be 0.0589 µM; in the assay with PC-9, 0.0799 µM; with A-431, 2.05 µM. Besides, the “A-431/NCI-H1975 Selectivity” value with NCI-H1975 was found to be 34.7.
For the compound `C=CC(=O)Nc1c(N(C)CCN(C)C)cc(OC)c(Nc2cc(-c3ccc4c(cnn4C)c3)ncn2)c1F` [compound 13], the results for the IC50 with NCI-H1975, in the assay on PC-9 and in the assay on A-431 were 0.0018 µM, 0.0086 µM and 0.77 µM, respectively.
For `C=CC(=O)Nc1cc(Nc2cc(-c3ccc4cnn(C)c4c3)ncn2)c(OC)cc1N1CCC(N2CC(OC)C2)CC1` [compound 207], the IC50 was found to be 0.0102 µM in the assay on NCI-H1975, 0.0056 µM with PC-9 and 0.895 µM in the assay with A-431. Besides, the “A-431/NCI-H1975 Selectivity” value in the assay on NCI-H1975 worked out at 87.7.
For the compound `C=CC(=O)Nc1cc(Nc2cc(-c3ccc4c(cnn4C)c3)ncn2)c(OC)cc1CN1CCN(C)CC1` [compound 294], the IC50 stood at 0.0713 µM in the assay on NCI-H1975, 0.0449 µM in the assay with PC-9 and 4.58 µM in the assay on A-431. The “A-431/NCI-H1975 Selectivity” value in the assay with NCI-H1975 is 64.2.
`C=CC(=O)Nc1cc(Nc2cc(-c3ccc4cnn(C)c4c3)ncn2)c(OC)cc1N1CCN(C)C(C)C1` (stereo not shown) [compound 41]: the IC50 in the assay with NCI-H1975 was determined as 0.0204 µM; in the assay on PC-9, 0.0106 µM; with A-431 it was 0.612 µM. Further, the “A-431/NCI-H1975 Selectivity” value with NCI-H1975 is 30.0.
Turning to `C=CC(=O)Nc1cc(Nc2cc(-c3cc4cnn(C)c4cc3F)ncn2)c(OC)cc1N(C)C1CCN(C)C1` (stereo not shown) [compound 195], the values for the IC50 with NCI-H1975, in the assay with PC-9 and in the assay with A-431 were 0.0204 µM, 0.0195 µM and 1.44 µM, respectively. The “A-431/NCI-H1975 Selectivity” value with NCI-H1975 was found to be 70.5.
On the same counts, the results for `C=CC(=O)Nc1cc(Nc2cc(-c3ccc4cnn(C)c4c3)ncn2)c(OC)cc1N1CCC(C2CCN(C)CC2)CC1` [compound 53] are 0.151 µM, 0.0679 µM, 1.25 µM and 8.3.
For `C=CC(=O)Nc1cc(Nc2cc(-c3ccc4c(cnn4C)c3)ncn2)c(OC(F)F)cc1N1CCC(N2C[C@@H](C)N(C)[C@@H](C)C2)CC1` [compound 146], in that order: 0.0102 µM, 0.0149 µM, 0.8 µM and 78.5.
For `C=CC(=O)Nc1cc(Nc2cc(-c3ccc4c(cnn4C)c3)ncn2)c(OC)cc1N(C)C1CCN(CCOC)C1` (stereo not shown) [compound 222], in that order: 0.0136 µM, 0.0207 µM, 0.983 µM and 72.3.
For the compound `C=CC(=O)Nc1cc(Nc2cc(-c3ccc4cnn(C)c4c3)ncn2)c(OC)cc1N1CCC(N2CCN(C)CC2)CC1` [compound 52], the figures for the IC50 in the assay on NCI-H1975, in the assay with PC-9 and in the assay with A-431 were 0.0417 µM, 0.039 µM and 0.615 µM, respectively. Moreover, in the assay on NCI-H1975, the “A-431/NCI-H1975 Selectivity” value came to 14.7.
Take `C=CC(=O)Nc1cc(Nc2cc(-c3ccc4c(cnn4C)c3)ncn2)c(OC)cc1N(C)C1CCN(C)CC1` [compound 35]: the figures for the IC50 in the assay with NCI-H1975, in the assay on PC-9 and with A-431 were 0.0132 µM, 0.0164 µM and 1.59 µM, respectively.
In the case of `C=CC(=O)Nc1cc(Nc2cc(-c3ccc4c(cnn4CC)c3)ncn2)c(OCC)cc1N(C)CCN(C)C` [compound 89], the values for the IC50 with NCI-H1975, in the assay on PC-9 and with A-431 were 0.0199 µM, 0.0148 µM and 0.954 µM, respectively. In addition, the “A-431/NCI-H1975 Selectivity” value in the assay with NCI-H1975 is 48.0.
On the same counts, the results for `C=CC(=O)Nc1cc(Nc2cc(-c3ccc4cnn(C)c4c3)ncn2)c(OC)cc1N1CCC(N2CCN(C(C)C)CC2)CC1` [compound 157] are 0.0327 µM, 0.011 µM, 1.65 µM and 50.6.
On the same counts, the results for `C=CC(=O)Nc1cc(Nc2cc(-c3ccc4c(cnn4C)c3)ncn2)c(OC)cc1N(C)CCNC(C)C` [compound 263] are 0.0091 µM, 0.0185 µM, 1.2 µM and 131.9.
Take `C=CC(=O)Nc1c(N(C)CCN(C)C)cc(OC)c(Nc2nccc(-c3ccc4c(cnn4C)c3)n2)c1F` [compound 261]: the 50% inhibitory concentration (IC50) with NCI-H1975 came out at 0.037 µM; in the assay on PC-9 it was 0.0408 µM; in the assay on A-431 it was 2.1 µM. The “A-431/NCI-H1975 Selectivity” value in the assay with NCI-H1975 was 56.8.
With `C=CC(=O)Nc1cc(Nc2nccc(-c3ccc4c(cnn4C)c3)n2)c(OC)cc1OCCN(C)C` [compound 237], the results for the IC50 in the assay with NCI-H1975, with PC-9 and in the assay with A-431 were 0.0217 µM, 0.0445 µM and 1.82 µM, respectively. For the same compound, in the assay on NCI-H1975, the “A-431/NCI-H1975 Selectivity” value came to 84.1.
On the same counts, the results for `C=CC(=O)Nc1cc(Nc2nccc(-c3ccc4c(cnn4C)c3)n2)c(OC)cc1C(=O)N(C)CCN(C)C` [compound 290] are 0.0308 µM, 0.0365 µM, 1.63 µM and 52.9.

By IC50 is commonly meant the point on the concentration scale where inhibition reaches its midpoint. A high value points to a need for much substance.
